How the values were obtained:
[1] = test system: alveolar macrophages (CD11c) and neutrophils (Ly6G); assay: Flow cytometry of alveolar exudate of drug fed mice; type: in vivo; conditions: 8 weeks
Source text: Mice (4 week old, male C57Bl6) were purchased from the Jackson Laboratory (Bar Harbor, Me.) and acclimatized for 1 week in a specific-pathogen-free animal facility. Animal care was provided by the University of Michigan's Unit for Laboratory Animal Medicine (ULAM) and the experimental protocol was approved by the Committee on Use and Care of Animals in accordance with NIH guidelines. An oral diet containing CFZ was fed to mice as previously described (Baik J, et al., Antimicrob. Agents Chemother. 2013; 57:1218-30; Baik J, et al., PLoS One 2012; 7:e47494; Keswani R K, et al., Mol. Pharm. 2015:10). […]
Mice were euthanized as described above and the trachea was surgically exposed and cannulated with an 18G luer stub and the lungs were lavaged to obtain alveolar exudate by instilling calcium- and magnesium-free Dulbecco's PBS (DPBS) containing 0.5 mM EDTA in 1-ml aliquots for a total of 6 ml. […] Viable (using Trypan Blue staining method) and CLDI containing cells were counted using a hemocytometer.
Peritoneal and alveolar lavage was performed as stated before to obtain the respective exudates. […] For CLDI fluorescence signal experiments, cells were pelleted by centrifugation (100×g for 5 min) followed by resuspension in PBS+5% FBS (500 μl). […] These cells also had extremely high side-scatter that were measured as saturated signals. […]

[2] = test system: carrageenan-based footpad-edema model; assay: Carrageenan footpad edema model, 8-week orally fed mice; type: in vivo; conditions: 8 week oral treatment
Method: Experiments using the CFZ mice model were performed as published before (Baik et al., 2013, supra; Baik et al., 2012, supra; Keswani, R. K. et al. Mol. Pharm. 12, 2528-2536 (2015)). Mice (4 week old, male C57Bl/6) were purchased from the Jackson Laboratory (Bar Harbor, Me.) and acclimatised for 2 weeks in a specific-pathogen-free animal facility. All animal care was provided by the University of Michigan's Unit for Laboratory Animal Medicine (ULAM), and the experimental protocol was approved by the Committee on Use and Care of Animals. CFZ was dissolved in sesame oil (Roland, China, or Shirakiku, Japan) to achieve a concentration of 3 mg/ml, which was mixed with Powdered Lab Diet 5001 (PMI International, Inc., St. Louis, Mo.) to produce a 0.03% drug to powdered feed mix. A corresponding amount of sesame oil was mixed with chow for vehicle treatment (control).
Mice Carrageenan Footpad Edema Model. Carrageenan (C1867, Sigma-Aldrich®, 2% in PBS, 30 μl) was injected into the right footpad while PBS (30 μl) was injected in the left footpad as a negative control. For preliminary testing of CFZ as an anti-inflammatory agent, 8-week orally fed mice (CFZ and control) were used. For testing of CFZ in soluble and microcrystal form, naïve 4-5 week old mice were injected with carrageenan first followed by injection of CFZ-A (2 mM in DMSO, 30 μl), CLDIs (2 mM equivalent in PBS, 30 μl) or CFZ-HCl (2 mM equivalent in PBS, 30 μl) at 48 h post carrageenan injection. For control experiments, CFZ-A, CLDIs and CFZ-HCl were injected into the right footpads of naïve 4-5 week old mice. DMSO was used as a control for CFZ-A in the left footpad whereas PBS was used as a control for CLDIs and CFZ-HCl. Footpads were measured (length—l, width—w, three thicknesses—t1, t2, t3) at various time points using a digital vernier calliper and changes in the swelling based on volume of the foot was calculated as per above.

Akt = assay: Western blot of Akt phosphorylated at Ser473; type: cell-based, murine; conditions: RAW 264.7 cells, 24 h
Method: The murine macrophage cell line RAW 264.7 was purchased from ATCC (Manassas, Va.) and maintained in DMEM (Life Technologies, Carlsbad, Calif.) supplemented with 10% FBS. Soluble CFZ or isolated CLDIs were added at various concentrations in DMEM with 5% FBS to 6-well plates containing 4×10^5 cells/well and incubated (24 h at 37° C. and 5% CO2). Culture supernatants were harvested at 24 h, centrifuged (1500×g for 5 min), and stored (−20° C.) in frozen aliquots prior to analysis. For experiments involving TLR stimulation, cells were washed twice with pre-warmed DPBS to remove extracellular, non-phagocytosed CLDIs or CFZ, and then the cells were serum-starved for 18 h in DMEM. Supernatants were collected from unstimulated cells and cells stimulated with 200 ng/ml Pam3 or 1 μg/ml LPS in DMEM.

CC(C)/N=c1\cc2n(-c3ccc(Cl)cc3)c3ccccc3nc-2cc1Nc1ccc(Cl)cc1 [CFZ, 3-(p-chloroanilino)-10-(p-chlorophenyl)-2, 10-dihydro-2-isopropyliminophenazine] was tested, and the “% of CLDI(+) cells that are CD11c(+)” value [1] was over 99%, the “% of Ly6G(+) cells detected as CLDI+” value [1] was under 2% and the “decrease of inflammation vs control diet” value ([2]; t=4 h) was about 3 fold. The “decrease of inflammation vs control diet” value ([2]; t=24 h) was about 14 fold, the “decrease of inflammation vs control diet” value ([2]; t=48 h) was about 2 fold and the “phosphorylation of Akt” value (Akt) was “minimally affected phosphorylation of Akt”.

— patent publication US20160220710A1, “COMPOSITIONS AND METHODS FOR DELIVERING PHARMACEUTICAL AGENTS” (THE REGENTS OF THE UNIVERSITY OF MICHIGAN, priority 2015, published 2016)
